# Measured values from paper PMC3083694, “Effects of Intermediates between Vitamins K2 and K3 on Mammalian DNA Polymerase Inhibition and Anti-Inflammatory Activity” (International Journal of Molecular Sciences, 2011).
# How the values were obtained:
# [1] = biological target: T1, Human DNA polymerase ɛ (Homo sapiens, UniProt Q07864); assay: DNA polymerase activity assay, human pol ɛ; format: biochemical; details: B-family pol; read-out: IC50 Value of MK-2, Human DNA polymerase ɛ
# T1 construct: made in house
# Protocol: (§1) Pols from mammals, a fish (cherry salmon), an insect (fruit fly) and a plant (cauliflower) were purified, and prokaryotic pols and other DNA metabolic enzymes, such as T7 RNA polymerase, T4 polynucleotide kinase and bovine deoxyribonuclease I, were purchased as described in our previous report. The activities of all pols and other DNA metabolic enzymes were measured as described in previous reports.
# (§2) The components of the pol assay were poly(dA)/oligo(dT)18 and dTTP as the DNA template-primer and 2′-deoxyribonucleoside 5′-triphosphate (dNTP) substrate, respectively. VK2, VK3, and their synthesized derivatives (i.e., MK-3, MK-2 and MK-1) were dissolved in dimethyl sulfoxide (DMSO) at various concentrations and sonicated for 30 s. The sonicated samples (4 μL) were mixed with 16 μL of each pol enzyme (final amount, 0.05 units) in 50 mM Tris-HCl (pH 7.5) containing 1 mM dithiothreitol, 50% glycerol and 0.1 mM EDTA, and kept at 0 °C for 10 min. […] Activity without the inhibitor was considered to be 100%, and the activity remaining at each concentration of inhibitor was determined relative to this value. […]
# [2] = biological target: Cherry salmon DNA polymerase δ (Oncorhynchus masou, UniProt Z9UCE0HTX2); assay: DNA polymerase activity assay, cherry salmon pol δ; format: biochemical; details: fish pol; read-out: IC50 Value of MK-2, Cherry salmon DNA polymerase δ
# Protocol: as §1, §2
# [3] = biological target: T2, Fruit fly DNA polymerase δ (Drosophila melanogaster, UniProt P54358); assay: DNA polymerase activity assay, fruit fly pol δ; format: biochemical; details: insect pol; read-out: IC50 Value of MK-2, Fruit fly DNA polymerase δ
# T2 construct: made in house
# Protocol: as §1, §2
# [4] = biological target: T3, Fruit fly DNA polymerase ɛ (Drosophila melanogaster, UniProt Q9VCN1); assay: DNA polymerase activity assay, fruit fly pol ɛ; format: biochemical; details: insect pol; read-out: IC50 Value of MK-2, Fruit fly DNA polymerase ɛ
# T3 construct: made in house
# Protocol: as §1, §2
# [5] = biological target: T4, T4 polynucleotide kinase (Enterobacteria phage T4, UniProt P06855); assay: DNA metabolic enzyme assay, T4 polynucleotide kinase; format: biochemical; details: other DNA metabolic enzyme; read-out: IC50 Value of MK-2, T4 polynucleotide kinase
# T4 construct: purchased
# Protocol: as §1
# [6] = system: nuclear translocation of NF-κB p65 in RAW264.7 cells; assay: LPS-induced nuclear translocation of NF-κB p65 (Western blot); format: cell-based, mouse; details: 10 μM MK-2 30 min, then 100 ng/mL LPS 30 min, LPS alone 4.47-fold
# Protocol: RAW264.7 cells on a 6-well plate at 5 × 10^5 cells/well were incubated with 10 μM of MK-2 or DMSO (1 μL/mL) as a vehicle control for 30 min, followed by treatment with 100 ng/mL of LPS for 30 min. After treatment, cells were harvested with lysis buffer consisting of 10 mM Hepes (pH 7.9), 10 mM KCl, 1.5 mM MgCl2 and 0.5 mM DTT containing protease inhibitors (1 mM phenylmethylsulfonyl fluoride [PMSF], 5 μg/mL of leupeptin and 5 μg/mL of aprotinin) and phosphatase inhibitors (10 mM NaF and 1 mM Na3VO4) and stood on ice for 15 min with occasional mixing. The mixture was centrifuged at 1000 × g for 10 min at 4 °C. […] The protein concentration was measured by using a bicinchoninic acid (BCA) assay kit in accordance with the manufacturer’s protocol. […]
# The nuclear proteins (30–50 μg of protein) were boiled in a quarter-volume of sample buffer (1 M Tris-HCl [pH 7.5], 640 mM 2-mercaptoethanol, 0.2% bromphenol blue, 4% SDS and 20% glycerol) and then separated on 10% SDS polyacrylamide gels. […] The protein-antibody complex was visualized with ChemiLumiONE (Nacalai Tesque, Kyoto, Japan) and detected using an Image Reader (LAS-3000 Imaging System, Fuji Photo Film, Tokyo, Japan). The intensity of each band was analyzed using ImageJ, which was developed at the National Institute of Health.
# [7] = system: LPS-induced TNF-α production in serum; assay: In vivo LPS-induced inflammatory experiment, serum TNF-α; design: species or system mouse; details: female C57BL/6 mice; 100 mg/kg BW intraperitoneal, 30 min before LPS 250 μg/kg BW i.p.; serum 1 h after LPS
# Protocol: All animal studies were performed according to the guidelines outlined in the “Care and Use of Laboratory Animals” of Kobe University. The animals were anesthetized with pentobarbital before undergoing cervical dislocation. Female 8-week-old C57BL/6 mice that had been bred in-house with free access to food and water were used for all experiments. All of the mice were maintained under a 12-h light/dark cycle and housed at a room temperature of 25 °C.
# Mice were intraperitoneally injected with 200 μL of MK-2 dissolved in corn oil at 100 mg/kg body weight (BW), or 200 μL of corn oil as a vehicle control. After 30 min, the mice were intraperitoneally injected with 200 μL of 250 μg/kg BW LPS dissolved in PBS or 200 μL of PBS as a vehicle control. After 1 h, the mice were killed, and blood samples were collected. The blood serum was separated by centrifugation at 15,000 × g for 10 min at 4 °C, and the TNF-α level in the serum was measured by ELISA.
# T1 sequence (Q07864 whole entry): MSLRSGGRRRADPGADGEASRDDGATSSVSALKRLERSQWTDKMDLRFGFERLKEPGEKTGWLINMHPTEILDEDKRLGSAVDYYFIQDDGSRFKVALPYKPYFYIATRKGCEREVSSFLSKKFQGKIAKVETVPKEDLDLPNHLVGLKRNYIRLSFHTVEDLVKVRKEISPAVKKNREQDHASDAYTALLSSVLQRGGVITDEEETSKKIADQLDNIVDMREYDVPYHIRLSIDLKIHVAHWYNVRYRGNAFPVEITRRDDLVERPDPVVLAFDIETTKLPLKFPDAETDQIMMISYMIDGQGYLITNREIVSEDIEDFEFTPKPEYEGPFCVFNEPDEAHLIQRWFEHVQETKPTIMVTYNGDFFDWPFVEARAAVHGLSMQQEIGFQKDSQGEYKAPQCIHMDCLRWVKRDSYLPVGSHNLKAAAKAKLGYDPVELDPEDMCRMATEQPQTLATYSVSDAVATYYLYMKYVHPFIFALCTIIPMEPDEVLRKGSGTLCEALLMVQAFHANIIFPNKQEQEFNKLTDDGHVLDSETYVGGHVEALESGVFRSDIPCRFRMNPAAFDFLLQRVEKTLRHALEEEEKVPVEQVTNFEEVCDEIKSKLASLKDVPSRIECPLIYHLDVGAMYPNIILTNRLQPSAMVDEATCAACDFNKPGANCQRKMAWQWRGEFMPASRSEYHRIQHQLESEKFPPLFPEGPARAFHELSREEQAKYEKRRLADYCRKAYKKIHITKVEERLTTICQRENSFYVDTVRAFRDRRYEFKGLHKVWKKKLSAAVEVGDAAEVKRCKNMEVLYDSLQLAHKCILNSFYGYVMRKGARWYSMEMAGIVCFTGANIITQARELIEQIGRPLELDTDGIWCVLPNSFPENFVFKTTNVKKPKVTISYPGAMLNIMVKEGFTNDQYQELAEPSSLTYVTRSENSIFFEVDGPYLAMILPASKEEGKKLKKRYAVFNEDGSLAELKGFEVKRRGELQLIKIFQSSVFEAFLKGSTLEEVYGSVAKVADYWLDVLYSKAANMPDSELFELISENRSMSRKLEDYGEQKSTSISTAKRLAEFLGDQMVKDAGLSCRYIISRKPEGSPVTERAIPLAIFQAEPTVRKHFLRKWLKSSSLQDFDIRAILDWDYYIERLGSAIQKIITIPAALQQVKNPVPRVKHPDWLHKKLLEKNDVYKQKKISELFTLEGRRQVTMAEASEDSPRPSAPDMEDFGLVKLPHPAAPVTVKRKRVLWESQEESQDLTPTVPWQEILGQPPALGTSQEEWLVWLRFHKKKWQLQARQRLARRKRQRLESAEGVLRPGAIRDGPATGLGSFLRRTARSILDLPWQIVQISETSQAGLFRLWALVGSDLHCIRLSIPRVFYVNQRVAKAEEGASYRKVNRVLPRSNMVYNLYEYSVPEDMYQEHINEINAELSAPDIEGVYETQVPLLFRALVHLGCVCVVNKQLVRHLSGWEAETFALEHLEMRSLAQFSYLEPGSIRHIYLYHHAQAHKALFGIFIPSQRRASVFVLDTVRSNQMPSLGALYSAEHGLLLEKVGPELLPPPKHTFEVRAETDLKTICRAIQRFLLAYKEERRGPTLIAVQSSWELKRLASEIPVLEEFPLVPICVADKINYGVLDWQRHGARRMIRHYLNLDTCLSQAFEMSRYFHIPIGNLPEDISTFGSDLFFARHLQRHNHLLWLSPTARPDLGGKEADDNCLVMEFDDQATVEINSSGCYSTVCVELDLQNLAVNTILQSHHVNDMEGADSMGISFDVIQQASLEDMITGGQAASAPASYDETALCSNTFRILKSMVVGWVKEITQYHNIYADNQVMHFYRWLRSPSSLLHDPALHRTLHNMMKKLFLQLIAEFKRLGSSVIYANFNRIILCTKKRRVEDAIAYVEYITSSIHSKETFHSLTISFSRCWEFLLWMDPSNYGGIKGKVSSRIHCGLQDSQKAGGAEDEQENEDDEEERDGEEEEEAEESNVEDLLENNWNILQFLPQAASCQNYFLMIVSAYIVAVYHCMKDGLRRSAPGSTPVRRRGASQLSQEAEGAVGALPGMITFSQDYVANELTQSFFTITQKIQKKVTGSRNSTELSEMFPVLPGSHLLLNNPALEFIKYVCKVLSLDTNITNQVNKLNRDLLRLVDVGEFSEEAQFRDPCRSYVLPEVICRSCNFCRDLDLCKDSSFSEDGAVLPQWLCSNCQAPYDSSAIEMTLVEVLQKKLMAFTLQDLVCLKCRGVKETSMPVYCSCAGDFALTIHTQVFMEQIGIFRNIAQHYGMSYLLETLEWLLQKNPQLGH
# T4 sequence (P06855 whole entry): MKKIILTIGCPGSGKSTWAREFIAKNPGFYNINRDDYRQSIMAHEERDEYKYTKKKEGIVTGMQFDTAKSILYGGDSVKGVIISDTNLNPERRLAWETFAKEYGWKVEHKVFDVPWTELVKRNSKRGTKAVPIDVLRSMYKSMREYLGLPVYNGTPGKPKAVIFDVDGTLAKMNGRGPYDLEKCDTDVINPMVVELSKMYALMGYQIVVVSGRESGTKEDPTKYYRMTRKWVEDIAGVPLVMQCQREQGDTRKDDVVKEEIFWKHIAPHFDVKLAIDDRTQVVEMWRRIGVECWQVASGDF
# T2 sequence (P54358 whole entry): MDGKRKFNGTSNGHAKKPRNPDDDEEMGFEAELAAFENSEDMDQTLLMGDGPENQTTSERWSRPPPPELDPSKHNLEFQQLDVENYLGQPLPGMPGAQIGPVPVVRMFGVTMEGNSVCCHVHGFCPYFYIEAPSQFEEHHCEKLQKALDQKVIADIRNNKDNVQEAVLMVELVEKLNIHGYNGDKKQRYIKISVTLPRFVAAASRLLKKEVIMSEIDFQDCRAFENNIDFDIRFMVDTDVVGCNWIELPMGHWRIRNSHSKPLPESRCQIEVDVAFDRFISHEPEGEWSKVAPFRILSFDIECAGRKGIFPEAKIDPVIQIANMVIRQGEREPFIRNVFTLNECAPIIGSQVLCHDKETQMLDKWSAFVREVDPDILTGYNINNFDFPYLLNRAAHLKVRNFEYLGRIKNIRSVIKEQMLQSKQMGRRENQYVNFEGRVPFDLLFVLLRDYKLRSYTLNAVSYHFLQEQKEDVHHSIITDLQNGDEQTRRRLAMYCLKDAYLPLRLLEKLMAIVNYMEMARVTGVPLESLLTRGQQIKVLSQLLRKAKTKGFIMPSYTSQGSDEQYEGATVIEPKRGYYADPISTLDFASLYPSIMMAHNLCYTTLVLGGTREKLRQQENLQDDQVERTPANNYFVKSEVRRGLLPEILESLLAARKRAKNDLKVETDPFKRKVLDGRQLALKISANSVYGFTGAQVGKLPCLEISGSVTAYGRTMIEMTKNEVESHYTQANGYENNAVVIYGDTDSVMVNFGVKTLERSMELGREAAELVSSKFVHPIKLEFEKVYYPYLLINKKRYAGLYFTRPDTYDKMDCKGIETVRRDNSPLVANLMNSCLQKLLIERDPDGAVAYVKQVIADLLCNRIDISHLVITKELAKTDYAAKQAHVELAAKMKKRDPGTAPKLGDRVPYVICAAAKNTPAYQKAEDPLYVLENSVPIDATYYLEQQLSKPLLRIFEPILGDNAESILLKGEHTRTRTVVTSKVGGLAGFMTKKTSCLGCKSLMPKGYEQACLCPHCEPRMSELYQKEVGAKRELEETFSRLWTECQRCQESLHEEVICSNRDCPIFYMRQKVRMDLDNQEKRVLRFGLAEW
# Sequence of Cherry salmon DNA polymerase δ (Z9UCE0HTX2 1-856): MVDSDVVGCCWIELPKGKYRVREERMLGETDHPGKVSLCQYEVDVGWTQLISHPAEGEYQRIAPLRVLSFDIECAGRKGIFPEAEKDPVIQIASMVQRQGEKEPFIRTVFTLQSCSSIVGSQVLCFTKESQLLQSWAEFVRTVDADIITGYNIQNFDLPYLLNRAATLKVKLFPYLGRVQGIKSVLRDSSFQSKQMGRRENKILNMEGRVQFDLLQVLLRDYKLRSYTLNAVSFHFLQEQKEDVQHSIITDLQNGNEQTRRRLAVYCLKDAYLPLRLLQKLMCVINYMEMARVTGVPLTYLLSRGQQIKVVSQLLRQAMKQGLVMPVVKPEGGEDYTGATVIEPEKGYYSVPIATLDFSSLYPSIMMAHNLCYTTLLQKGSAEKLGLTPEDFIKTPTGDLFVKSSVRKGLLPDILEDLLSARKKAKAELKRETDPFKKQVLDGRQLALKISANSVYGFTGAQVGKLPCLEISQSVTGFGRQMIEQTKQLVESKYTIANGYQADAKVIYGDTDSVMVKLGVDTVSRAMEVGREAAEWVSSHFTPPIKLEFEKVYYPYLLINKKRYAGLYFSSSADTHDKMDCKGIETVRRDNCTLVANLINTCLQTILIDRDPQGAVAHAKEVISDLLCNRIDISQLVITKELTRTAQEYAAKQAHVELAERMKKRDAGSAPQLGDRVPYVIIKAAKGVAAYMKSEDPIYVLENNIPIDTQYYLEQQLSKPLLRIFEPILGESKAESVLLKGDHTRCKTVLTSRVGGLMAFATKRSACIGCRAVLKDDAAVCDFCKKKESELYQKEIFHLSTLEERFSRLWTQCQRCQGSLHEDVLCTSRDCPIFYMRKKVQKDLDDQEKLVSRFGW
smiles,measurement,setting,value
CC(C)=CCC/C(C)=C/CC1=C(C)C(=O)c2ccccc2C1=O [MK-2],IC50,[1],28.2 ± 1.6 µM
same,IC50,[2],32.5 ± 1.9 µM
same,IC50,[3],36.9 ± 2.2 µM
same,IC50,[4],36.7 ± 2.1 µM
same,IC50,[5],> 200 µM
same,LPS-stimulated nuclear translocation of NF-κB p65 relative to treatment without LPS,[6],2.04 fold
same,Decrease of LPS-induced serum TNF-α production,[7],83.2%
